For the assay, the system named is ATDC5 cells. Description: Chondrogenesis activity assay in ATDC5 cells (collagen type II induction, immunofluorescence). Format: cell-based, mouse. Particulars: Mus musculus; for EC50: collagen type II induction in ATDC5 cells, concentration reaching 50% of maximum induction; for Emax: maximum percent induction of collagen type II relative to internal reference compound at 10 μM, ATDC5 cells. The procedure: A) Chondrogenesis Activity Assay in ATDC5 Cells
The chondrogenic potential of the compounds of the invention was determined using clonal mouse chondrogenic ATDC5 cells (T. Atsumi et al., Cell Differ. Dev. 1990, 30, 109-116). ATDC5 cells are derived from mouse embryonic AT805 teratocarcinoma cells and are used frequently to study the multistep chondrogenic differentiation process from precursor cells into chondrocytes (C. Shukunami et al., Exp. Cell Res. 1998, 241, 1-11; H. Aklyami et al., J. Bone Miner. Res. 1996, 11, 22-28; H. Akiyami et al., Biochem. Biophys. Res. Commun. 1997, 235, 142-147; C. Shukunami et al., J. Cell Biol. 1996, 133, 457-468; C. Shukunami et al., J. Bone Miner. Res. 1997, 12, 1174-1188). Undifferentiated ATDC5 cells grow in vitro until confluence, showing a fibroblast-like morphology. In the presence of insulin, cells undergo transient condensation and form numerous nodular structures (cartilage nodules). The cartilagenous nature of these nodules was shown by Alcian Blue staining as evidence of the production of proteoglycan (aggrecan) and collagen type II expression (by expression analysis), both molecular markers of chondrocytes (C. Shukunami et al., J. Cell Biol. 1996, 133, 457-468).
Chondrogenic differentiation of ATDC5 cells into chondrocytes by the compounds of the invention was determined by measuring the induction of type II collagen protein as a marker of chondrocytes, a structural component of the extracellular matrix which constitutes more than 80% of cartilage mass (D. R. Eyre, Clin. Orthop. Relat. Res. 2004, 427 Suppl, S118-S122). ATDC5 cells were obtained from RIKEN and cultured as monolayer in basal culture medium (Dulbecco's Modified Eagle Medium/Nutrient Mixture F-12 (DMEM/F12, Invitrogen, #31331-093) supplemented with 10 μg/ml Transferrin (Roche, #10652 202001), 3×10E−8 M sodium seienite (Sigma, #S-5261) and 5% Fetal Calf Serum (FCS Gold, PAA, #A15-251)), at 37° C., and 5% CO2 in plastic flasks of 75 cm^2 or 300 cm^2 subconfluently for propagation. ATDC5 cells were harvested and resuspended in differentiation culture medium that consisted of basal culture medium complemented with 10 μg/ml insulin (Sigma, #19278), to initiate chondrogenic differentiation. For studying the effect of test compounds, the ATDC5 cells were plated in 96-well plates (3.0×10E4 cells per well in 200 μl of differentiation culture medium). Test compounds dissolved in DMSO were added to yield increasing compound concentrations, typically from 40 nM to 10 μM, and a final DMSO concentration of 0.1%. On each 96-well plate, control wells containing no test compound but the same concentration of DMSO, i.e. untreated cells, were included and used as reference for the determination of the effect of the test compounds on the cells, and wells containing an internal reference compound at a concentration of 10 μM were included and used as positive control and for standardizing the results. Cells in the wells were incubated for 4 days at 37° C., and 5% CO2, followed by quantification of intracellular collagen type II.
Quantification of collagen type II in the ATDC5-cells was done by immunofluorescence staining of collagen type II, and fluorescence intensity was measured using a cellular high content imaging system (ImageXpress, Molecular Device). For immunofluorescence staining of intracellular collagen, medium was removed after compound incubation and cells were fixed with 200 μl/well methanol/water (95%/5%). Cells were permeabilized in 200 μl/well phosphate-buffered saline (PBS) containing 0.2% Triton X100 for 15 min and, after removal of the solution, blocked for 30 min with 200 μl/well PBS/0.2% Triton X100 containing 1% bovine serum albumin (BSA) to avoid unspecific binding. After the blocking step, the solution was removed and collagen type II staining solution was added. […]

Consider `CCn1c2cnccc2c2cc(Cl)cc(-c3cccnc3)c21` [Example 1, 6-Chloro-9-ethyl-8-pyridin-3-yl-9H-pyrido[3,4-b]indole], for which the EC50 – broadly, the concentration that produces a half-maximal response – amounted to 1700 nM and the Emax – broadly, the size of the effect at its maximum, as opposed to the concentration needed – was less than 20%.

In the case of `CC#CCn1c2cnccc2c2cc(Cl)cc(-c3ccc(Cl)nc3Cl)c21` [Example 3, 9-(But-2-ynyl)-6-chloro-8-(2,6-dichloropyridin-3-yl)-9H-pyrido[3,4-b]indole], the EC50 was greater than 10000 nM and the Emax was in the range of 20 to 50%.

Consider `N#CCn1c2cnccc2c2cc(Cl)cc(-c3ccc(Cl)nc3Cl)c21` [Example 4, 2-(6-Chloro-8-(2,6-dichloropyridin-3-yl)-9H-pyrido[3,4-b]indol-9-yl)acetonitrile], for which the response was half-maximal at 830 nM (EC50) and the Emax was greater than 80%.

As for `CCn1c2c(-c3ccn(Cc4cccnc4C)n3)cc(Cl)cc2c2ccnc(C)c21` [Example 6, 6-Chloro-9-ethyl-1-methyl-8-[1-(2-methyl-pyridin-3-ylmethyl)-1H-pyrazol-3-yl]-9H-pyrido[3,4-b]indole], the response was half-maximal at 2200 nM (EC50) and the Emax was in the range of 50 to 80%.

For the compound `CCn1c2c(-c3ccnn3Cc3cccnc3C)cc(Cl)cc2c2ccnc(C)c21` [Example 7, 6-Chloro-9-ethyl-1-methyl-8-[2-(2-methyl-pyridin-3-ylmethyl)-2H-pyrazol-3-yl]-9H-pyrido[3,4-b]indole], the EC50 was greater than 3300 nM and the Emax was less than 20%.

For `CCn1c2c(-c3cc(C)nn3C)cc(Cl)cc2c2ccnc(C)c21` [Example 9, 6-Chloro-8-(2,5-dimethyl-2H-pyrazol-3-yl)-9-ethyl-1-methyl-9H-pyrido[3,4-b]indole], the midpoint of the response, the EC50, lay at 1400 nM and the Emax is greater than 80%.

Turning to `CC(C)(C)OC(=O)n1cc(-c2cc(Cl)cc3c4ccncc4n(CC(F)(F)F)c23)cn1` [Example 12, tert-Butyl 4-(6-chloro-9-(2,2,2-trifluoroethyl)-9H-pyrido[3,4-b]indol-8-yl)-1H-pyrazole-1-carboxylate], the concentration giving a half-maximal response (EC50) is greater than 10000 nM and the Emax fell in the range of 20 to 50%.

In turn, `COc1ccc(-c2cc(C)cc3c2[nH]c2c(C)nccc23)cc1` [Example 14, 8-(4-Methoxy-phenyl)-1,6-dimethyl-9H-pyrido[3,4-b]indole] had an EC50 of 860 nM and a maximal response (Emax) greater than 80%.

`CCn1c2c(-c3cnn(C)c3)cc(C)cc2c2ccnc(C)c21` [Example 15, 9-Ethyl-1,6-dimethyl-8-(1-methyl-1H-pyrazol-4-yl)-9H-pyrido[3,4-b]indole] returned an EC50 of 1000 nM and an Emax of 50 to 80%.

Consider `Cc1cc2c([nH]c3c(-c4ccc(OCCn5cccn5)cc4)cc(Br)cc32)c(C)n1` [Example 16, 6-Bromo-1,3-dimethyl-8-[4-(2-pyrazol-1-yl-ethoxy)-phenyl]-9H-pyrido[3,4-b]indole], for which a half-maximal effect (EC50) was put at 2800 nM and the Emax fell in the range of 50 to 80%.

In turn, `CCn1c2c(-c3ccc(OC)c(N)n3)cc(Cl)cc2c2ccnc(C)c21` [Example 17, 6-(6-Chloro-9-ethyl-1-methyl-9H-pyrido[3,4-b]indol-8-yl)-3-methoxy-pyridin-2-ylamine] yielded an EC50 of 3600 nM and an Emax greater than 80%.

As for `CCn1c2c(-c3cc(-c4ccccc4)no3)cc(Cl)cc2c2ccnc(C)c21` [Example 18, 6-Chloro-9-ethyl-1-methyl-8-[3-phenyl-isoxazol-5-yl)-9H-pyrido[3,4-b]indole], the half-maximal effective concentration (EC50) was 1000 nM and the Emax was greater than 80%.

In turn, `CCn1c2c(-c3ccn(C)n3)cc(Cl)cc2c2ccnc(C)c21` [Example 20, 6-Chloro-9-ethyl-1-methyl-8-(1-methyl-1H-pyrazol-3-yl)-9H-pyrido[3,4-b]indole] had an EC50 of 3900 nM and a maximal effect (Emax) of 50 to 80%.

The compound `Cc1nccc2c1[nH]c1c(-c3ccc4c(c3)CC(C)O4)cc(Cl)cc12` (stereo not shown) [Example 23, 6-Chloro-1-methyl-8-(2-methyl-2,3-dihydro-benzofuran-5-yl)-9H-pyrido[3,4-b]indole] registered an EC50 of 1600 nM and an Emax of 50 to 80%.

In turn, `Cc1nccc2c1[nH]c1c(-c3ccc(C(O)c4ccccc4)cc3)cc(Cl)cc12` (stereo not shown) [Example 24, [4-(6-Chloro-1-methyl-9H-pyrido[3,4-b]indol-8-yl)-phenyl]-phenyl-methanol] gave an EC50 of 2000 nM and an Emax of 50 to 80%.

`Cc1nccc2c3cc(Cl)cc(-c4cnn(C)c4)c3n(C)c12` [Example 25, 6-Chloro-1,9-dimethyl-8-(1-methyl-1H-pyrazol-4-yl)-9H-pyrido[3,4-b]indole]: the EC50 amounted to 170 nM and the Emax is greater than 80%.

`CCn1c2c(-c3ccc(OCCN(C(C)C)C(C)C)cc3)cc(Cl)cc2c2ccnc(C)c21` [Example 26, (2-[4-(6-Chloro-9-ethyl-1-methyl-9H-pyrido[3,4-b]indol-8-yl)-phenoxy]-ethyl)-diisopropyl-amine] came in with an EC50 of 530 nM and an Emax of 50 to 80%.

Compound `CCn1c2c(-c3ccc(OCCN4CCOCC4)cc3)cc(Cl)cc2c2ccnc(C)c21` [Example 28, 6-Chloro-9-ethyl-1-methyl-8-[4-(2-morpholin-4-yl-ethoxy)-phenyl]-9H-pyrido[3,4-b]indole] gave an EC50 of 190 nM and a maximal response (Emax) greater than 80%.

On to `CCn1c2c(-c3ccc(CN4CCOCC4)cc3)cc(Cl)cc2c2ccnc(C)c21` [Example 30, 6-Chloro-9-ethyl-1-methyl-8-(4-morpholin-4-ylmethyl-phenyl)-9H-pyrido[3,4-b]indole], for which the midpoint of the response, the EC50, lay at 270 nM and the Emax is greater than 80%.

For the compound `Cc1nccc2c1[nH]c1c(-c3ccc(C=O)cc3)cc(Cl)cc12` [Example 31, 4-(6-Chloro-1-methyl-9H-pyrido[3,4-b]indol-8-yl)-benzaldehyde], it took 250 nM to reach a half-maximal effect (EC50) and the Emax is greater than 80%.

With `Cc1nccc2c1[nH]c1c(-c3ccc(C(O)c4ccccn4)cc3)cc(Cl)cc12` (stereo not shown) [Example 32, [4-(6-Chloro-1-methyl-9H-pyrido[3,4-b]indol-8-yl)-phenyl]-pyridin-2-yl-methanol], the EC50 is 370 nM and the Emax is 50 to 80%.

With `COc1ccc(-c2cc(C(=O)O)cc3c2[nH]c2c(C)nccc23)cc1` [Example 35, 8-(4-Methoxy-phenyl)-1-methyl-9H-pyrido[3,4-b]indole-6-carboxylic acid], the EC50 was 3100 nM and the Emax was greater than 80%.

As for `COc1ccc(-c2cc(C(N)=O)cc3c2[nH]c2c(C)nccc23)cc1` [Example 36, 8-(4-Methoxy-phenyl)-1-methyl-9H-pyrido[3,4-b]indole-6-carboxamide], the EC50 was 100 nM and the Emax is greater than 80%.

`CCn1c2c(-c3cnn(Cc4ccc5ccccc5n4)c3)cc(Br)cc2c2ccnc(C)c21` [Example 38, 6-Bromo-9-ethyl-1-methyl-8-(1-quinolin-2-ylmethyl-1H-pyrazol-4-yl)-9H-pyrido[3,4-b]indole] yielded an EC50 of 2600 nM and an Emax of 50 to 80%.

Consider `Cc1nccc2c1[nH]c1c(-c3ccc(OCC4COCCO4)cc3)cc(Cl)cc12` (stereo not shown) [Example 40, 6-Chloro-8-[4-([1,4]dioxan-2-ylmethoxy)-phenyl]-1-methyl-9H-pyrido[3,4-b]indole], for which the half-maximal effective concentration (EC50) was found to be 160 nM and the Emax is greater than 80%.

As for `Cc1nccc2c1[nH]c1c(-c3ccc(OCc4ncc5ccccc5n4)cc3)cc(Cl)cc12` [Example 41, 6-Chloro-1-methyl-8-[4-(quinazolin-2-ylmethoxy)-phenyl]-9H-pyrido[3,4-b]indole], the EC50 turned out to be 240 nM and the Emax lay in the range of 50 to 80%.

Values taken from patent US12275733B2, “Substituted pyrido[3,4-b]indoles for the treatment of cartilage disorders” (Sanofi, priority 2016, dated 2025).
